The results in this text go back to patent US11945826B2, “Hydroxypyridoxazepines as NRF2 activators” (GLAXOSMITHKLINE INTELLECTUAL PROPERTY DEVELOPMENT LIMITED, priority 2019, dated 2024).

The experiment concerns Nrf2 (NQO1 activity in BEAS-2B cells). In words: BEAS-2B NQO1 MTT Assay. As to conditions: Homo sapiens, 48 hours, NQO1 specific activity induction, read-out: EC50. The experiment is classed as cell-based. An excerpt: NAD(P)H:quinone oxidoreductase 1 (NQO1), also called DT diaphorase, is a homodimeric FAD-containing enzyme that catalyzes obligatory NAD(P)H-dependent two-electron reductions of quinones and protects cells against the toxic and neoplastic effects of free radicals and reactive oxygen species arising from one-electron reductions. The transcription of NQO1 is finely regulated by Nrf2, and thus NQO1 activity is a good marker for Nrf2 activation. On day one, frozen BEAS-2B cells (ATCC) were thawed in a water bath, counted, and re-suspended at a concentration of 250,000 cells/mL. Fifty microliters of cells were plated in 384 well black clear-bottomed plates. Plates were incubated at 37° C., 5% CO2 overnight. On day two, plates were centrifuged and 50 nL of compound or controls were added to the cells. Plates were then incubated at 37° C., 5% CO2 for 48 hours. On day four, medium was aspirated from the plate and crude cell lysates were made by adding 13 μL of 1× Cell Signalling Technologies lysis buffer with 1 Complete, Mini, EDTA-free Protease Inhibitor Tablet (Roche) for each 10 mL of lysis buffer. After lysis plates were incubated for 20 minutes at room temperature. Two microliters of lysate were removed for use in Cell Titer Glo assay (Promega) and MTT cocktail was prepared (Prochaska et. al. 1998) for measurement of NQO1 activity. Fifty microliters of MTT cocktail was added to each well, plate was centrifuged, and analyzed on an Envision plate reader (Perkin Elmer) using Absorbance 570 nm label for 30 minutes. Product formation was measured kinetically and the pEC50 of NQO1 specific activity induction was calculated by plotting the change in absorbance (Delta OD/min) versus the log of compound concentration followed by 3-parameter fitting.
EC50s<1 nM (+++++), EC50s 1 nM-10 nM (++++), EC50s 10 nM-100 nM (+++), EC50s 100 nM-1 μM (++), EC50s 1 μM-10 μM (+).

In the case of `Cc1ccc([C@@H](CC(=O)O)c2ccc3c(nnn3C)c2C)cc1CN1Cc2nc(O)ccc2O[C@@H](C(C)C)C1` [Example 2, (R)-3-(1,4-dimethyl-1H-benzo[d][1,2,3]triazol-5-yl)-3-(3-(((S)-7-hydroxy-2-isopropyl-2,3-dihydropyrido[2,3-f][1,4]oxazepin-4(5H)-yl)methyl)-4-methylphenyl)propanoic acid], the concentration giving a half-maximal response (EC50) lay within 100 to 1000 nM.

Regarding `Cc1ccc([C@@H](CC(=O)O)c2ccc3c(nnn3C)c2C)cc1CN1Cc2nc(O)ccc2O[C@H](C(C)C)C1` [Example 3, (R)-3-(1,4-dimethyl-1H-benzo[d][1,2,3]triazol-5-yl)-3-(3-(((R)-7-hydroxy-2-isopropyl-2,3-dihydropyrido[2,3-f][1,4]oxazepin-4(5H)-yl)methyl)-4-methylphenyl)propanoic acid], the EC50 lay within 1 to 10 nM.

Take `Cc1ccc([C@@H](CC(=O)O)c2ccc3c(nnn3C)c2C)cc1CN1Cc2nc(O)ccc2O[C@H](C)C1` [Example 4, (R)-3-(1,4-dimethyl-1H-benzo[d][1,2,3]triazol-5-yl)-3-(3-(((R)-7-hydroxy-2-methyl-2,3-dihydropyrido[2,3-f][1,4]oxazepin-4(5H)-yl)methyl)-4-methylphenyl)propanoic acid]: the EC50 is 10 to 100 nM.

On to `Cc1ccc([C@@H](CC(=O)O)c2ccc3c(nnn3C)c2C)cc1CN1Cc2nc(O)ccc2OC(C)(C)C1` [Example 5, (R)-3-(1,4-dimethyl-1H-benzo[d][1,2,3]triazol-5-yl)-3-(3-((7-hydroxy-2,2-dimethyl-2,3-dihydropyrido[2,3-f][1,4]oxazepin-4(5H)-yl)methyl)-4-methylphenyl)propanoic acid], for which the EC50 was 10 to 100 nM.

In the case of `Cc1ccc([C@@H](CC(=O)O)c2ccc3c(nnn3C)c2C)cc1CN1Cc2nc(O)ccc2O[C@H](C(F)(F)F)C1` [Example 6, (R)-3-(1,4-dimethyl-1H-benzo[d][1,2,3]triazol-5-yl)-3-(3-(((S)-7-hydroxy-2-(trifluoromethyl)-2,3-dihydropyrido[2,3-f][1,4]oxazepin-4(5H)-yl)methyl)-4-methylphenyl)propanoic acidacid], the EC50 lay in the range of 10 to 100 nM.

As to `CC[C@H]1CN(Cc2cc([C@@H](CC(=O)O)c3ccc4c(nnn4C)c3C)ccc2C)Cc2nc(O)ccc2O1` [Example 7, (R)-3-(1,4-dimethyl-1H-benzo[d][1,2,3]triazol-5-yl)-3-(3-(((S)-2-ethyl-7-hydroxy-2,3-dihydropyrido[2,3-f][1,4]oxazepin-4(5H)-yl)methyl)-4-methylphenyl)propanoic acid], the concentration giving a half-maximal response (EC50) fell in the range of 100 to 1000 nM.

For `Cc1ccc([C@H](CC(=O)O)c2ccc3c(nnn3C)c2C)cc1CN1Cc2nc(O)ccc2O[C@H](C(C)C)C1` [Example 8, (S)-3-(1,4-dimethyl-1H-benzo[d][1,2,3]triazol-5-yl)-3-(3-(((R)-7-hydroxy-2-isopropyl-2,3-dihydropyrido[2,3-f][1,4]oxazepin-4(5H)-yl)methyl)-4-methylphenyl)propanoic acid], the EC50 was 10 to 100 nM.

With `Cc1ccc([C@H](CC(=O)O)c2ccc3c(nnn3C)c2C)cc1CN1Cc2nc(O)ccc2O[C@@H](C(C)C)C1` [Example 9, (S)-3-(1,4-dimethyl-1H-benzo[d][1,2,3]triazol-5-yl)-3-(3-(((S)-7-hydroxy-2-isopropyl-2,3-dihydropyrido[2,3-f][1,4]oxazepin-4(5H)-yl)methyl)-4-methylphenyl)propanoic acid], the EC50 was in the range of 100 to 1000 nM.

Regarding `CC[C@@H]1CN(Cc2cc([C@H](CC(=O)O)c3ccc4c(nnn4C)c3C)ccc2C)Cc2nc(O)ccc2O1` [Example 10, (S)-3-(1,4-dimethyl-1H-benzo[d][1,2,3]triazol-5-yl)-3-(3-(((R)-2-ethyl-7-hydroxy-2,3-dihydropyrido[2,3-f][1,4]oxazepin-4(5H)-yl)methyl)-4-methylphenyl)propanoic acid], the EC50 lay within 10 to 100 nM.

For the compound `Cc1ccc([C@H](CC(=O)O)c2ccc3c(nnn3C)c2C)cc1CN1Cc2nc(O)ccc2OC(C)(C)C1` [Example 11, (S)-3-(1,4-dimethyl-1H-benzo[d][1,2,3]triazol-5-yl)-3-(3-((7-hydroxy-2,2-dimethyl-2,3-dihydropyrido[2,3-f][1,4]oxazepin-4(5H)-yl)methyl)-4-methylphenyl)propanoic acid], the EC50 was in the range of 100 to 1000 nM.

As for `CC[C@H]1CN(Cc2cc([C@H](CC(=O)O)c3ccc4c(nnn4C)c3C)ccc2C)Cc2nc(O)ccc2O1` [Example 12, (S)-3-(1,4-dimethyl-1H-benzo[d][1,2,3]triazol-5-yl)-3-(3-(((S)-2-ethyl-7-hydroxy-2,3-dihydropyrido[2,3-f][1,4]oxazepin-4(5H)-yl)methyl)-4-methylphenyl)propanoic acid], the EC50 was in the range of 1000 to 10000 nM.

`CC[C@@H]1CN(Cc2cc([C@@H](c3ccc4c(nnn4C)c3C)C(C)(C)C(=O)O)ccc2C)Cc2nc(O)ccc2O1` [Example 13, (S)-3-(1,4-dimethyl-1H-benzo[d][1,2,3]triazol-5-yl)-3-(3-(((R)-2-ethyl-7-hydroxy-2,3-dihydropyrido[2,3-f][1,4]oxazepin-4(5H)-yl)methyl)-4-methylphenyl)-2,2-dimethyl propanoic acid]: the EC50 was under 1 nM.

With `Cc1ccc([C@@H](c2ccc3c(nnn3C)c2C)C(C)(C)C(=O)O)cc1CN1Cc2nc(O)ccc2O[C@H](C)C1` [Example 14, (S)-3-(1,4-dimethyl-1H-benzo[d][1,2,3]triazol-5-yl)-3-(3-(((R)-7-hydroxy-2-methyl-2,3-dihydropyrido[2,3-f][1,4]oxazepin-4(5H)-yl)methyl)-4-methylphenyl)-2,2-dimethylpropanoic acid], the 50% effective concentration (EC50) was in the range of 1 to 10 nM.

On to `Cc1ccc([C@@H](c2ccc3c(nnn3C)c2C)C(C)(C)C(=O)O)cc1CN1Cc2nc(O)ccc2O[C@H](C(C)C)C1` [Example 15, (S)-3-(1,4-dimethyl-1H-benzo[d][1,2,3]triazol-5-yl)-3-(3-(((R)-7-hydroxy-2-isopropyl-2,3-dihydropyrido[2,3-f][1,4]oxazepin-4(5H)-yl)methyl)-4-methylphenyl)-2,2-dimethylpropanoic acid], for which the EC50 is under 1 nM.

Take `Cc1ccc([C@@H](c2ccc3c(nnn3C)c2C)C(C)(C)C(=O)O)cc1CN1Cc2nc(O)ccc2O[C@@H](C(C)C)C1` [Example 16, (S)-3-(1,4-dimethyl-1H-benzo[d][1,2,3]triazol-5-yl)-3-(3-(((S)-7-hydroxy-2-isopropyl-2,3-dihydropyrido[2,3-f][1,4]oxazepin-4(5H)-yl)methyl)-4-methylphenyl)-2,2-dimethylpropanoic acid]: the EC50 fell in the range of 1 to 10 nM.

For the compound `Cc1ccc([C@@H](c2ccc3c(nnn3C)c2C)C(C)(C)C(=O)O)cc1CN1Cc2nc(O)ccc2OC(C)(C)C1` [Example 17, (S)-3-(1,4-dimethyl-1H-benzo[d][1,2,3]triazol-5-yl)-3-(3-((7-hydroxy-2,2-dimethyl-2,3-dihydropyrido[2,3-f][1,4]oxazepin-4(5H)-yl)methyl)-4-methylphenyl)-2,2-dimethylpropanoic acid], the EC50 lay in the range of 1 to 10 nM.

Take `CC[C@H]1CN(Cc2cc([C@@H](c3ccc4c(nnn4C)c3C)C(C)(C)C(=O)O)ccc2C)Cc2nc(O)ccc2O1` [Example 18, (S)-3-(1,4-dimethyl-1H-benzo[d][1,2,3]triazol-5-yl)-3-(3-(((S)-2-ethyl-7-hydroxy-2,3-dihydropyrido[2,3-f][1,4]oxazepin-4(5H)-yl)methyl)-4-methylphenyl)-2,2-dimethylpropanoic acid]: the EC50 was in the range of 1 to 10 nM.

Regarding `Cc1ccc([C@@H](c2ccc3c(nnn3C)c2C)C(C)(C)C(=O)O)cc1CN1Cc2nc(O)ccc2O[C@H](C(F)(F)F)C1` [Example 19, (S)-3-(1,4-dimethyl-1H-benzo[d][1,2,3]triazol-5-yl)-3-(3-(((S)-7-hydroxy-2-(trifluoromethyl)-2,3-dihydropyrido[2,3-f][1,4]oxazepin-4(5H)-yl)methyl)-4-methylphenyl)-2,2-dimethylpropanoic acid], the EC50 is under 1 nM.

For `Cc1ccc([C@@H](CC(=O)O)c2ccc3c(nnn3C)c2C)cc1CN1Cc2nc(O)ccc2O[C@@H](C(F)(F)F)C1` [Example 20, (R)-3-(1,4-dimethyl-1H-benzo[d][1,2,3]triazol-5-yl)-3-(3-(((R)-7-hydroxy-2-(trifluoromethyl)-2,3-dihydropyrido[2,3-f][1,4]oxazepin-4(5H)-yl)methyl)-4-methylphenyl)propanoic acid], the EC50 fell in the range of 1000 to 10000 nM.

For the compound `Cc1ccc([C@@H](c2ccc3c(nnn3C)c2C)C(C)(C)C(=O)O)cc1CN1Cc2nc(O)ccc2O[C@@H](C(F)(F)F)C1` [Example 21, (S)-3-(1,4-dimethyl-1H-benzo[d][1,2,3]triazol-5-yl)-3-(3-(((R)-7-hydroxy-2-(trifluoromethyl)-2,3-dihydropyrido[2,3-f][1,4]oxazepin-4(5H)-yl)methyl)-4-methylphenyl)-2,2-dimethylpropanoic acid], the EC50 is 10 to 100 nM.
